This is an account of results in ChEMBL document CHEMBL5465560, “Selectivity Literature for EUbOPEN Chemogenomic Library” (2024).

The target in assay [1] is Serine/threonine-protein kinase A-Raf (Homo sapiens) (UniProt P10398). Kind of assay: Selectivity interaction (Kinase panel (KiNativ target engagement assay in Jurkat cells)) EUB0001635a ARAF. The class given is cell-based. Particulars: Selectivity number of off-targets 0.0, Selectivity number of targets 233.0, Source Knowledge https://www.sciencedirect.com/science/article/pii/S2451945619300674?via%3Dihub, at 1 µM.

Assay [2] has as its target Serine/threonine-protein kinase 32C (Homo sapiens) (UniProt Q86UX6). The experiment in a line: Selectivity interaction (Ambit KINOMEscan and KiNATiv profiling in Jurkat cells) EUB0000090b STK32C. The class given is cell-based. Particulars: at 1 µM.
Assay [3] addresses Mu-type opioid receptor (Homo sapiens, UniProt P35372). The experiment in a line: Selectivity interaction (Panel of non-epigenetic targets (kinases, GPCRs, ion channels, and transporters, Eurofins) ) EUB0000271b OPRM1. Conditions: at 1 µM.
Assay [4] has as its target Casein kinase I isoform gamma-2 (Homo sapiens) (UniProt P78368). Kind of assay: Selectivity interaction (KinomeScan (DiscoverX)) EUB0000666a CSNK1G2. Conditions: at 10 µM.
For assay [5], the target named is T1, Cytoplasmic tyrosine-protein kinase BMX (Homo sapiens) (UniProt P51813).
T1 sequence (whole entry): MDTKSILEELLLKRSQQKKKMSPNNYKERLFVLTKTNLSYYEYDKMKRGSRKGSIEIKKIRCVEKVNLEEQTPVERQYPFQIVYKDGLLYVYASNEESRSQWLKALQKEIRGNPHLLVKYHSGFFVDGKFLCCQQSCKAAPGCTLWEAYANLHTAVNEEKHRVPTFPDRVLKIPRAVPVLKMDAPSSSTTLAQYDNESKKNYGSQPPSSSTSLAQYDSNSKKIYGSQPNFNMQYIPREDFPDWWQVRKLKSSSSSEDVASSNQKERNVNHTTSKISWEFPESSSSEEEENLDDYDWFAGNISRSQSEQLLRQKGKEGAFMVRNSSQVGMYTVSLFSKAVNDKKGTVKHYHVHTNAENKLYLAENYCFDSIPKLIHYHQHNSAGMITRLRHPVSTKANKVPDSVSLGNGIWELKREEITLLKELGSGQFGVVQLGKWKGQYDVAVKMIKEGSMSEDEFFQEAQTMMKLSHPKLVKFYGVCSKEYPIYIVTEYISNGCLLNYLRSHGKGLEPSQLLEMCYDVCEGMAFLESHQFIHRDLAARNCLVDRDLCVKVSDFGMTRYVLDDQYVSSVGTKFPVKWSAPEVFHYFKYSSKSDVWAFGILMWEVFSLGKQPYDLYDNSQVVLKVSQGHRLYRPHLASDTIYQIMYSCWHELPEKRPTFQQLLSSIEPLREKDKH
Kind of assay: Selectivity interaction (KinomeScan (DiscoverX)) EUB0000229b BMX. Conditions: at 10 µM.

Assay [6] has as its target Ribosomal protein S6 kinase alpha-1 (Homo sapiens, UniProt Q15418). Kind of assay: Selectivity interaction (Kinase panel (literature)) EUB0001199aCl RPS6KA1. Conditions: at 1 µM.
For assay [7], the target named is Mitogen-activated protein kinase kinase kinase 4 (Homo sapiens) (UniProt Q9Y6R4). The experiment in a line: Selectivity interaction (ActivX KiNativ screen (kinase selectivity in THP-1 cell lysates)) EUB0000639a MAP3K4. The class given is subcellular. Conditions: lysate.
Mitogen-activated protein kinase kinase kinase 4 (Homo sapiens), sequence (Q9Y6R4 whole entry): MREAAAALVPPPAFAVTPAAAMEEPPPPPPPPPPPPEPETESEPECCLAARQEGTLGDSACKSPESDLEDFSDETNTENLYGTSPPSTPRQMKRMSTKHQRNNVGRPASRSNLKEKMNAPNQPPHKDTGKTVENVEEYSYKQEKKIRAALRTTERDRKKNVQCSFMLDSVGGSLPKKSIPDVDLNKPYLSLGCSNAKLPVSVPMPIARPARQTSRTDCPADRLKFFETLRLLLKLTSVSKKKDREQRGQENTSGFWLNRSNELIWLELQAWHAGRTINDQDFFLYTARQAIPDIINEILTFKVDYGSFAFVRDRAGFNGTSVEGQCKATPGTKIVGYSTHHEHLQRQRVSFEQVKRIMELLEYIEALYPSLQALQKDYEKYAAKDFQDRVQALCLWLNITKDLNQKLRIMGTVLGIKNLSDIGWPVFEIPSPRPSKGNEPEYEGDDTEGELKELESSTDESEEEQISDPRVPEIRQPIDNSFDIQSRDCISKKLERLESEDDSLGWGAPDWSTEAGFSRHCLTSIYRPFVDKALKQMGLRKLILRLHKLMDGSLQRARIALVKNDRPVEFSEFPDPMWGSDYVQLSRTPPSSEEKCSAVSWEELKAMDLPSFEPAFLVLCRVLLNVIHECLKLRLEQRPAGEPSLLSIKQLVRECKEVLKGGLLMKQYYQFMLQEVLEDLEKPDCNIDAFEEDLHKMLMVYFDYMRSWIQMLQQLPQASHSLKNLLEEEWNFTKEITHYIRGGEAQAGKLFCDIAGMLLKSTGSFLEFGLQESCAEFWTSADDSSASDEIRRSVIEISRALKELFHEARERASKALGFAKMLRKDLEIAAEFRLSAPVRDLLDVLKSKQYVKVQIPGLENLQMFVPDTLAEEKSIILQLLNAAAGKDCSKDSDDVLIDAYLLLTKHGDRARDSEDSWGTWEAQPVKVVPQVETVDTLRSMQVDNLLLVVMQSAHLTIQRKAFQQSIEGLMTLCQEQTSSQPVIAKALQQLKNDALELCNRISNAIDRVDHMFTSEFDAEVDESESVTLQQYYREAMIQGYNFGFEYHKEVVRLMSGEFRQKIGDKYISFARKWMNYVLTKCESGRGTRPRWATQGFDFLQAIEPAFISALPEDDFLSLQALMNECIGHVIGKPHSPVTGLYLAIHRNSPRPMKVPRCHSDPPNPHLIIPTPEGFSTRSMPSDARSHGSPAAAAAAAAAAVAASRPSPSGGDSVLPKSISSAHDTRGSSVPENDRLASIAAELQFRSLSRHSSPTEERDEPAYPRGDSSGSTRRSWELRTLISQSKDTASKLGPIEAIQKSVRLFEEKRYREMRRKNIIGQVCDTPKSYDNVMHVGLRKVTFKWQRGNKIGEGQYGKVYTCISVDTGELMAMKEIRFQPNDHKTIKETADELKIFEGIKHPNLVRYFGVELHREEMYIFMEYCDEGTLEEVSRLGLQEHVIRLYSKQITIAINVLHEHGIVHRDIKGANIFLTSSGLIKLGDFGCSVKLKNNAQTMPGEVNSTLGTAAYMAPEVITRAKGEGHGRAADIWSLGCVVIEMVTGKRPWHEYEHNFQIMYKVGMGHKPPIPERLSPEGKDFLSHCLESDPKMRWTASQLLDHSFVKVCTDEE
Assay [8] concerns the target Serine/threonine-protein kinase WNK1 (Homo sapiens) (UniProt Q9H4A3). Kind of assay: Selectivity interaction (ActivX KiNativ screen (kinase selectivity in THP-1 cell lysates)) EUB0000639a WNK1. The assay is classed as subcellular. Conditions: lysate, at 0.04 µM.
Assay [9] deals with Cyclin-dependent kinase 7 (Homo sapiens, UniProt P50613). The experiment in a line: Selectivity interaction (ActivX KiNativ screen (kinase selectivity in THP-1 cell lysates)) EUB0000639a CDK7. The assay is classed as subcellular. Conditions: lysate, at 1 µM.
Assay [10] addresses Mitogen-activated protein kinase kinase kinase 10 (Homo sapiens) (UniProt Q02779). Conditions: at 10 µM.
For assay [11], the target named is Tyrosine-protein kinase Lyn (Homo sapiens, UniProt P07948). Kind of assay: Selectivity interaction (ProQinase) EUB0000171b LYN.
Tyrosine-protein kinase Lyn, sequence (P07948 2-512 limits assumed): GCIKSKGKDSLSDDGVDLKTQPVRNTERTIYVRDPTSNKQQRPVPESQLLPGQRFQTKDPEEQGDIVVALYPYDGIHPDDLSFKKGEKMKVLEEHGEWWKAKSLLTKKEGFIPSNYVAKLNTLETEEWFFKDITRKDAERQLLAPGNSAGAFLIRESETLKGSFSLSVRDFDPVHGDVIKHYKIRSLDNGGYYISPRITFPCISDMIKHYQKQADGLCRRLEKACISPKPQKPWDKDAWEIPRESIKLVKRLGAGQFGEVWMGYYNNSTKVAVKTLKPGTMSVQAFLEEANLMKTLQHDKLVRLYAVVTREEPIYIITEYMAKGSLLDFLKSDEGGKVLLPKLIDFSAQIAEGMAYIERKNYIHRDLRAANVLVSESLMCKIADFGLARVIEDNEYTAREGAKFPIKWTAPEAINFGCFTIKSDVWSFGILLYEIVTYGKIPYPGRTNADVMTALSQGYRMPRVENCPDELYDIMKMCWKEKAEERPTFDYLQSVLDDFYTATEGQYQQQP
Assay [12] deals with Tau-tubulin kinase 2 (Homo sapiens) (UniProt Q6IQ55). Kind of assay: Selectivity interaction (ProQinase) EUB0000171b TTBK2.
Tau-tubulin kinase 2 (Homo sapiens), sequence (Q6IQ55 whole entry): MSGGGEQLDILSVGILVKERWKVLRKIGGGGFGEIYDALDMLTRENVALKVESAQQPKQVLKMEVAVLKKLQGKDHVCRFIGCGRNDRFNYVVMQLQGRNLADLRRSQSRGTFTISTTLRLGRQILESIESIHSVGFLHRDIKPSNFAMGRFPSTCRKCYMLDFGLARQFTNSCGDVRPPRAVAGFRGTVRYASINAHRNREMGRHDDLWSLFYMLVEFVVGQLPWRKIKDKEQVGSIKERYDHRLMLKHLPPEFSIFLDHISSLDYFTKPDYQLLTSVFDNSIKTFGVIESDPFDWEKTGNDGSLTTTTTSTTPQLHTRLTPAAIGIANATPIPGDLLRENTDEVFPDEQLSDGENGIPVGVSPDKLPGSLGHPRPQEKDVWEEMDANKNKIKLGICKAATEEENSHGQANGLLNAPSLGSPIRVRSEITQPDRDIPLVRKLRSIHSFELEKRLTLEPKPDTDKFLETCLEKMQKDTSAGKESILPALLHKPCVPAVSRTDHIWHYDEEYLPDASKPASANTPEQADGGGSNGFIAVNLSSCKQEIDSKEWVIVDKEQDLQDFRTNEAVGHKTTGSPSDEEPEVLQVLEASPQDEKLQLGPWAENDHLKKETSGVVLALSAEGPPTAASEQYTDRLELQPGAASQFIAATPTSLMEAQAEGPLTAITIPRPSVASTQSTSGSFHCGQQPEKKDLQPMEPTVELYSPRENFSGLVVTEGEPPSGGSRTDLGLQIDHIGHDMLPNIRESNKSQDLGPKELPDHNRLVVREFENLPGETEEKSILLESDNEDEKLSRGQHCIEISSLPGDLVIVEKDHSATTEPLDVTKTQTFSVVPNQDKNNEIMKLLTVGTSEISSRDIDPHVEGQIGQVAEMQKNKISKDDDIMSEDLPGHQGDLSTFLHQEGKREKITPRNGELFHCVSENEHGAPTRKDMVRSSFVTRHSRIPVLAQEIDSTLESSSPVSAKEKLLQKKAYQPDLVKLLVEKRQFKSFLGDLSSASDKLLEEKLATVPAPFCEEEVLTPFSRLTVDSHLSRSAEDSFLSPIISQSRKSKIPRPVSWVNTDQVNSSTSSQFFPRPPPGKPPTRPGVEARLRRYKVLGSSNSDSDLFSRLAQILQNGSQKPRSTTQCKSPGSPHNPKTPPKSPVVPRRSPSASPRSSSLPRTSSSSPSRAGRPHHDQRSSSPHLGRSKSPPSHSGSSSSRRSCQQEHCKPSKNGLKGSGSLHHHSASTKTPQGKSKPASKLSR
In assay [13] the target is Endothelin receptor type B (Homo sapiens) (UniProt P24530). Kind of assay: Selectivity interaction (Eurofins CEREP Diversity Profile (receptors and ion channels)) EUB0000279b EDNRB. Particulars: at 10 µM.
In assay [14] the target is Cyclin-dependent kinase 18 (Homo sapiens) (UniProt Q07002). Kind of assay: Selectivity interaction (KinomeScan (DiscoverX)) EUB0000618a CDK18. Particulars: at 10 µM.
The target of assay [15] is Non-receptor tyrosine-protein kinase TYK2 (Homo sapiens, UniProt P29597). Kind of assay: Selectivity interaction (KinomeScan (DiscoverX)) EUB0000618a TYK2. Particulars: at 10 µM.
Assay [16] concerns the target Tyrosine-protein kinase JAK1 (Homo sapiens, UniProt P23458). Kind of assay: Selectivity interaction (KinomeScan (DiscoverX)) EUB0000618a JAK1. Conditions: at 10 µM.
Assay [17] deals with T2, Cyclin-dependent kinase 11A (Homo sapiens) (UniProt Q9UQ88).
T2 sequence (whole entry): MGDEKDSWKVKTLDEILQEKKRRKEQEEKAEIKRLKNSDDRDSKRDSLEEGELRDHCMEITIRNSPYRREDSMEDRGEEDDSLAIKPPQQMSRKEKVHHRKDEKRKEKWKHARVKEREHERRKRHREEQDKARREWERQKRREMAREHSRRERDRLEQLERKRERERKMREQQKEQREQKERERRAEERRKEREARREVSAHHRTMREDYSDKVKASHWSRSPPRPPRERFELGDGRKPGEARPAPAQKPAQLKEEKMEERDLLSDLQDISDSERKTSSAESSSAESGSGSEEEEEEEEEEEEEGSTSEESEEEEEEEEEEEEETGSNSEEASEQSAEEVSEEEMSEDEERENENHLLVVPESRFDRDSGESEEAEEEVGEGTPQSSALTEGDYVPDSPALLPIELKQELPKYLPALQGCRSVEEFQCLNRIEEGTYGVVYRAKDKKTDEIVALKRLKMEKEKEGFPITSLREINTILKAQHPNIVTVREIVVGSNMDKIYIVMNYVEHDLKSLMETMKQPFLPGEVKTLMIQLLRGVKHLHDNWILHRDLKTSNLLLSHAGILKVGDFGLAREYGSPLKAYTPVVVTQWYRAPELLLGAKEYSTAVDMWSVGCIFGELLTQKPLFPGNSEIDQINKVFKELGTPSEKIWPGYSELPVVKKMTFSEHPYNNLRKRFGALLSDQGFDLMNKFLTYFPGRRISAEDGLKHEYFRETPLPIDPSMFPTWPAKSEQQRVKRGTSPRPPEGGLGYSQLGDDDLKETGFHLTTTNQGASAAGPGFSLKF
The experiment in a line: Selectivity interaction (KinomeScan (DiscoverX)) EUB0000595a CDK11A. Conditions: at 10 µM.

Tyrosine-protein kinase JAK1, sequence (P23458 whole entry): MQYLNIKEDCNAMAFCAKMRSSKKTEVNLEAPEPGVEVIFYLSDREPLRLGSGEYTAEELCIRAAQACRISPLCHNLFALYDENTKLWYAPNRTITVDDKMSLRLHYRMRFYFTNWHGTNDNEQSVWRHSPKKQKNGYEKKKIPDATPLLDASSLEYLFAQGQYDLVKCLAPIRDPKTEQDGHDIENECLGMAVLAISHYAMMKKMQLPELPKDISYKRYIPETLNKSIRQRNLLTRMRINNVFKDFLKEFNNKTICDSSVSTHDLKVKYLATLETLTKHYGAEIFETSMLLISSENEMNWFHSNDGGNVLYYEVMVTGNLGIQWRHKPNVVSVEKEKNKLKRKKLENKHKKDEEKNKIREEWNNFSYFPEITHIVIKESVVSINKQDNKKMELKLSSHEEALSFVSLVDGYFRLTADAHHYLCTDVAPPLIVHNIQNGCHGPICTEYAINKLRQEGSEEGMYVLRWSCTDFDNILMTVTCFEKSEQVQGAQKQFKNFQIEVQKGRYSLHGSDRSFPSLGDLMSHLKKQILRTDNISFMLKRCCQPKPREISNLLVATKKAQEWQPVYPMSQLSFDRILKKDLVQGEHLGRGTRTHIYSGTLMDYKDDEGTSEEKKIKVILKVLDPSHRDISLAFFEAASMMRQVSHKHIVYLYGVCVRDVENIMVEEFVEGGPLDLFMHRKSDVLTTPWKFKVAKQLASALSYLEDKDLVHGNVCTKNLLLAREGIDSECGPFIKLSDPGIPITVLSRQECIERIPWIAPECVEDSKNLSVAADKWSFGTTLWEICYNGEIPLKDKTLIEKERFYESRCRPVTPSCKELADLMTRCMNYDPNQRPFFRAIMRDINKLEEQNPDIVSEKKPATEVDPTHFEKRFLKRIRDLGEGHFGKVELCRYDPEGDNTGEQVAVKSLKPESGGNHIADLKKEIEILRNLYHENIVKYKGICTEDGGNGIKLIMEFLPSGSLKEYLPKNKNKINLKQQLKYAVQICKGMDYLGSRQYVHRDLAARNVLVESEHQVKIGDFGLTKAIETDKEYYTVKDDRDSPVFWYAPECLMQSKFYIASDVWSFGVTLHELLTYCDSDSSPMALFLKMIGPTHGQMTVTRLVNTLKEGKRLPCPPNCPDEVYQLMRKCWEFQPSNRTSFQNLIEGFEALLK
Serine/threonine-protein kinase 32C (Homo sapiens), sequence (Q86UX6 whole entry): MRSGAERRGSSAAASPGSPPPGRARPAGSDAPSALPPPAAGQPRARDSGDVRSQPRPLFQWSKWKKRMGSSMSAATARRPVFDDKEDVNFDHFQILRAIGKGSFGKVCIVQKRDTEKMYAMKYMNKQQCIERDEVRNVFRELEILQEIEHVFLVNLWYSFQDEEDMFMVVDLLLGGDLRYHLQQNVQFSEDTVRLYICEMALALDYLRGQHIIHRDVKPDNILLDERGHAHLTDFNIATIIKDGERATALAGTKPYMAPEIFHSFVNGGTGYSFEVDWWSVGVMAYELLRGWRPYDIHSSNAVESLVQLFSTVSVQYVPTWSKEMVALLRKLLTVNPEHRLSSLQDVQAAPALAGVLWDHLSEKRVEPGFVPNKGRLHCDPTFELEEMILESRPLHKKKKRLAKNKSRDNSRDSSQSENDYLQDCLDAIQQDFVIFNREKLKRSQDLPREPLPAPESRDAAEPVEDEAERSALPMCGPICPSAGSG

For the molecule `C=CC(=O)Nc1ccc(C(=O)Nc2[nH]nc3c2CN(C(=O)N[C@H](CN(C)C)c2ccccc2)C3(C)C)cc1`, the % of engagement in [1] was -2.2%.
`CN(C)C/C=C/C(=O)Nc1ccc(C(=O)N2CCCC(Nc3ncc(Cl)c(-c4c[nH]c5ccccc45)n3)C2)cc1` (stereo not drawn) came in with a % of control in assay [2] of 71%.
For the molecule `Cc1cc(C)cc([C@@H]2c3cc(C)ccc3NC(=O)CN2C(=O)c2ccc(Br)s2)c1`, the % of inhibition in assay [3] was 4%.
Molecule `O=C(NOC[C@H](O)CO)c1ccc(F)c(F)c1Nc1ccc(I)cc1F` registered a % of control in assay [4] of 95%.
In the case of `COc1cc(N(C)c2ccnc3ccc(C(F)(F)F)cc23)cc(OC)c1OC`, the % binding in assay [5] worked out at 88%.
In the case of `CN1Cc2nccc(-c3cn(C)nc3-c3ccc(F)cc3)c2C1=O`, in [6], the % of inhibition came to 18%.
For the molecule `CC[C@@H]1[C@H](F)C(=O)N[C@@H]1COc1nccc2cc(C(N)=O)c(OC)cc12` [ZIMLOVISERTIB], the % of inhibition in assay [7] (at 0.01 µM) was 18.5%; in [7] (at 0.04 µM), -5.7%; in assay [7] (at 0.2 µM), -1.4%; in assay [7] (at 1 µM) it was -23%; in [7] (at 5 µM), 6.4%; in assay [8], -7.4%. Besides, the % of inhibition in [9] worked out at 10.8%.
`CCN(CC)CCCCNc1ncc2cc(-c3cc(OC)cc(OC)c3)c(NC(=O)NC(C)(C)C)nc2n1` had a % of control in assay [10] of 100%.
Regarding `C=CC(=O)Nc1cccc(C(=O)Nc2ccc(Nc3cc(-c4[nH]c(SC)nc4C)ccn3)cc2)c1`, the % of control in [11] (at 1 µM) came to 99%; in [11] (at 5 µM), 94%; in assay [12] (at 1 µM), 94%; in assay [12] (at 5 µM), 93%.
The molecule `CC(=O)c1cc(-c2ccccc2OCC2CC2)c2ncccn12` had a % of control in assay [13] of 84%.
In the case of `O[C@H]1CC[C@H](Nc2ncc3nc(Nc4c(F)cc(F)cc4F)n([C@H]4CCOC4)c3n2)CC1`, the values for the % of control in assay [14], in [15] and in assay [16] were 100%, 81% and 70%, respectively.
With `COCC(=O)NC/C=C/c1ccc2ncnc(Nc3ccc(Oc4ccc(C)nc4)c(C)c3)c2c1` [CP-724714], in assay [17], the % of control was determined as 100%.
